Laboratory results from patent publication US12337010B2, “Compositions and methods of treatment using nicotinamide mononucleotide” (Washington University, priority 2017, dated 2025).

Legend:
5′-nucleotidase = target: T1, 5′-nucleotidase (Mus musculus, UniProt Q61503); assay: 5'-nucleotidase activity assay in intact primary hepatocytes (adenosine from AMP by HPLC); assay type: cell-based; details: 500 μM AOPCP, 100 μM AMP
T1 construct: endogenous in cells; host or cells: primary hepatocytes from C57BL/6J mice
T1 sequence (Q61503 29-551): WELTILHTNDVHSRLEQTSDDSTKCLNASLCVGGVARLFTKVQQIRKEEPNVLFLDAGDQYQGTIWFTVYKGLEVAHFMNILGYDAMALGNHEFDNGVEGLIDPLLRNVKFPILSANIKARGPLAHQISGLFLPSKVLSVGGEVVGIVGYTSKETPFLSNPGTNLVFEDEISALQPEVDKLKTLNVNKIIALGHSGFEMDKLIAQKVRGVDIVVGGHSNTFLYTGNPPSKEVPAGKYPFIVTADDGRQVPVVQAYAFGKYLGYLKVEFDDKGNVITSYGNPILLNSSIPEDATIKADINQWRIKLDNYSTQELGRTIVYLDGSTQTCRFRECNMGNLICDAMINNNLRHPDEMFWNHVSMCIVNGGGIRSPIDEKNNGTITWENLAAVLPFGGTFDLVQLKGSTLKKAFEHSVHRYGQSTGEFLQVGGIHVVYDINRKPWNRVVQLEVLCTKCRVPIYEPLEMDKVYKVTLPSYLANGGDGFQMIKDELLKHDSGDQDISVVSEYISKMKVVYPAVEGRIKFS
Protocol: The amounts of adenosine produced were determined by HPLC. […] Silencing efficiencies were evaluated by quantitative RT-PCR.
AOPCP inhibits 5′-nucleotidase activity by 97%.

[1] = tested on: GLP-1 secretion from the ileum; assay: GLP-1 secretion from ex vivo ileal explants (ELISA); assay type: cell-based, mouse; details: ileal explants of 24-month-old female B6 mice, 20 μM, 4 h, vs 0.2% DMSO
Protocol: GLP-1 measurement in plasma and in supernatants of ex vivo small intestine explant cultures. Blood was collected after 6 h refeeding (from 10 am to 4 pm) following 24 h fasting (from 9 am to 9 am) from tail veins of 2- or 24-month-old female Slc12a8 knockdown mice and their controls using EDTA-coated tubes. Blood was immediately chilled on ice, centrifuged at 5,000×g at 4° C., and plasma samples were stored at −80° C. Small intestines from gut-specific Slc12a8 knockdown female mice or 12-month-old Slc12a8KO female mice were cut into three segments of the duodenum, jejunum, and ileum with length ratios of 1:3:2 (Wang, H. H., et al., Hepatology, 2007, 45, 998-1006). […] GLP-1 levels in plasma and media were measured by GLP-1 Total ELISA Kit (EMD Millipore, MO) following the manufacturer's instruction. GLP-1 values were normalized by total protein content analyzed by Bradford assay.
The involvement of SIRT1 (Yoon, M. J., et al., Cell Metab., 2015 21, 706-717) and SIRT6 (Jiang, H. et al., Nature, 2013, 496, 110-113) in the observed increase in GLP-1 secretion was examined. […] GLP-1 levels were measured by ELISA in the supernatants from ex vivo ileal explants of 24-month-old female B6 mice cultured with 0.2% DMSO, 20 µM EX527 or 20 μM STK665401 for 4 h (n=3 mice, analyzed using ANOVA with Tukey's test).

## Nc1ncnc2c1ncn2[C@@H]1O[C@H](COP(=O)(O)CP(=O)(O)O)[C@@H](O)[C@H]1O [AOPCP, adenosine-5′-[α,β-methylene]diphosphate]
5′-nucleotidase
  inhibition of 5′-nucleotidase activity: 97%

## Cn1c(=O)c2cc(S(=O)(=O)Nc3ccc(Cc4ccncc4)cc3)ccc2n(C)c1=O [STK665401]
[1]
  GLP-1 secretion: not
